# According to ChEMBL document CHEMBL4308841, “Synthesis, in vitro antiproliferative activity, and kinase inhibitory effects of pyrazole-containing diarylureas and diarylamides” (Eur J Med Chem, 2018):
# How the values were obtained:
# HL-60(TB) [1] = assay: Growth inhibition of human HL-60(TB) cells incubated for 48 hrs by sulforhodamine B assay; assay type: functional, cell-based; details: HL-60, 48 h
# NCI-H23 = assay: Growth inhibition of human NCI-H23 cells incubated for 48 hrs by sulforhodamine B assay; assay type: functional, cell-based; details: NCI-H23, 48 h
# SF-539 [2] = assay: Growth inhibition of human SF539 cells incubated for 48 hrs by sulforhodamine B assay; assay type: functional, cell-based; details: SF-539, 48 h
# SNB-75 [3] = assay: Growth inhibition of human SNB75 cells incubated for 48 hrs by sulforhodamine B assay; assay type: functional, cell-based; details: SNB-75, 48 h
# MCF7 [4] = assay: Growth inhibition of human MCF7 cells incubated for 48 hrs by sulforhodamine B assay; assay type: functional, cell-based; details: MCF7, 48 h
# Hs-578T [5] = assay: Growth inhibition of human Hs578T cells incubated for 48 hrs by sulforhodamine B assay; assay type: functional, cell-based
# HT-29 = assay: Growth inhibition of human HT-29 cells assessed as cell growth at 0.01 uM incubated for 48 hrs by sulforhodamine B assay relative to control; assay type: functional; details: HT-29, 48 h, read-out: Activity
# SNB-19 = assay: Growth inhibition of human SNB19 cells assessed as cell growth at 0.01 uM incubated for 48 hrs by sulforhodamine B assay relative to control; assay type: functional; details: SNB-19, 48 h, read-out: Activity
# SK-MEL-2 = assay: Growth inhibition of human SK-MEL-2 cells assessed as cell growth at 0.01 uM incubated for 48 hrs by sulforhodamine B assay relative to control; assay type: functional; details: SK-MEL-2, 48 h, read-out: Activity
# UACC-257 = assay: Growth inhibition of human UACC257 cells assessed as cell growth at 0.01 uM incubated for 48 hrs by sulforhodamine B assay relative to control; assay type: functional; details: UACC-257, 48 h, read-out: Activity
# IGROV-1 = assay: Growth inhibition of human IGROV1 cells assessed as cell growth at 0.01 uM incubated for 48 hrs by sulforhodamine B assay relative to control; assay type: functional; details: IGROV-1, 48 h, read-out: Activity
# SK-OV-3 = assay: Growth inhibition of human SKOV3 cells assessed as cell growth at 0.01 uM incubated for 48 hrs by sulforhodamine B assay relative to control; assay type: functional; details: SK-OV-3, 48 h, read-out: Activity
# RXF 393 = assay: Growth inhibition of human RXF393 cells assessed as cell growth at 0.01 uM incubated for 48 hrs by sulforhodamine B assay relative to control; assay type: functional; details: RXF 393, 48 h, read-out: Activity
# MCF7 [6] = assay: Growth inhibition of human MCF7 cells assessed as cell growth at 0.01 uM incubated for 48 hrs by sulforhodamine B assay relative to control; assay type: functional; details: MCF7, 48 h, read-out: Activity
# SR = assay: Growth inhibition of human SR cells assessed as cell growth at 0.1 uM incubated for 48 hrs by sulforhodamine B assay relative to control; assay type: functional; details: read-out: Activity
# NCI-H322M [7] = assay: Growth inhibition of human NCI-H322M cells assessed as cell growth at 0.1 uM incubated for 48 hrs by sulforhodamine B assay relative to control; assay type: functional; details: read-out: Activity
# OVCAR-3 = assay: Growth inhibition of human OVCAR3 cells assessed as cell growth at 0.1 uM incubated for 48 hrs by sulforhodamine B assay relative to control; assay type: functional; details: OVCAR-3, 48 h, read-out: Activity
# SN12C [8] = assay: Growth inhibition of human SN12C cells assessed as cell growth at 0.1 uM incubated for 48 hrs by sulforhodamine B assay relative to control; assay type: functional; details: read-out: Activity
# HL-60(TB) [9] = assay: Growth inhibition of human HL-60(TB) cells assessed as cell growth at 1 uM incubated for 48 hrs by sulforhodamine B assay relative to control; assay type: functional; details: HL-60, 48 h, read-out: Activity
# NCI-H322M [10] = assay: Growth inhibition of human NCI-H322M cells assessed as cell growth at 1 uM incubated for 48 hrs by sulforhodamine B assay relative to control; assay type: functional; details: read-out: Activity
# HCT-116 = assay: Growth inhibition of human HCT116 cells assessed as cell growth at 1 uM incubated for 48 hrs by sulforhodamine B assay relative to control; assay type: functional; details: HCT-116, 48 h, read-out: Activity
# SF-295 = assay: Growth inhibition of human SF295 cells assessed as cell growth at 1 uM incubated for 48 hrs by sulforhodamine B assay relative to control; assay type: functional; details: SF-295, 48 h, read-out: Activity
# CAKI-1 = assay: Growth inhibition of human Caki1 cells assessed as cell growth at 1 uM incubated for 48 hrs by sulforhodamine B assay relative to control; assay type: functional; details: CAKI-1, 48 h, read-out: Activity
# SN12C [11] = assay: Growth inhibition of human SN12C cells assessed as cell growth at 1 uM incubated for 48 hrs by sulforhodamine B assay relative to control; assay type: functional; details: read-out: Activity
# Hs-578T [12] = assay: Growth inhibition of human Hs578T cells assessed as cell growth at 1 uM incubated for 48 hrs by sulforhodamine B assay relative to control; assay type: functional; details: read-out: Activity
# NCI-H226 = assay: Growth inhibition of human NCI-H226 cells assessed as cell growth at 100 uM incubated for 48 hrs by sulforhodamine B assay relative to control; assay type: functional; details: NCI-H226, 48 h, read-out: Activity
# HCT-15 = assay: Growth inhibition of human HCT15 cells assessed as cell growth at 100 uM incubated for 48 hrs by sulforhodamine B assay relative to control; assay type: functional; details: HCT-15, 48 h, read-out: Activity
# SF-539 [13] = assay: Growth inhibition of human SF539 cells assessed as cell growth at 100 uM incubated for 48 hrs by sulforhodamine B assay relative to control; assay type: functional; details: SF-539, 48 h, read-out: Activity
# SNB-75 [14] = assay: Growth inhibition of human SNB75 cells assessed as cell growth at 100 uM incubated for 48 hrs by sulforhodamine B assay relative to control; assay type: functional; details: SNB-75, 48 h, read-out: Activity
# OVCAR-4 = assay: Growth inhibition of human OVCAR4 cells assessed as cell growth at 100 uM incubated for 48 hrs by sulforhodamine B assay relative to control; assay type: functional; details: OVCAR-4, 48 h, read-out: Activity
# [15] = read-out: LC50 (the source's name)
# [16] = read-out: pLC50 (the source's name) (converted)
compound,measurement,setting,value
COc1cc(Cl)cc(-c2nn(-c3cccc(NC(=O)Nc4ccc(Cl)c(C(F)(F)F)c4)c3)cc2-c2ccncc2)c1,GI50,HL-60(TB) [1]; read-out: GI50,1.55 µM
same,LC50,HL-60(TB) [1]; read-out: LC50,> 100 µM
same,TGI,HL-60(TB) [1]; read-out: TGI,55.3 µM
same,GI50,HL-60(TB) [1]; read-out: pGI50 (converted),1.66 µM
same,LC50,HL-60(TB) [1]; read-out: pLC50 (converted),> 100 µM
same,TGI,HL-60(TB) [1]; read-out: pTGI (converted),5.5 µM
same,GI50,NCI-H23; read-out: GI50,1.36 µM
same,LC50,NCI-H23; read-out: LC50,> 100 µM
same,TGI,NCI-H23; read-out: TGI,62.3 µM
same,GI50,NCI-H23; read-out: pGI50 (converted),1.35 µM
same,LC50,NCI-H23; read-out: pLC50 (converted),> 100 µM
same,TGI,NCI-H23; read-out: pTGI (converted),6.17 µM
same,GI50,SF-539 [2]; read-out: GI50,1.5 µM
same,CC50,SF-539 [2]; [15],7.51 µM
same,TGI,SF-539 [2]; read-out: TGI,33.5 µM
same,GI50,SF-539 [2]; read-out: pGI50 (converted),1.51 µM
same,CC50,SF-539 [2]; [16],7.59 µM
same,TGI,SF-539 [2]; read-out: pTGI (converted),3.39 µM
same,GI50,SNB-75 [3]; read-out: GI50,1.77 µM
same,CC50,SNB-75 [3]; [15],> 100 µM
same,TGI,SNB-75 [3]; read-out: TGI,11.1 µM
same,GI50,SNB-75 [3]; read-out: pGI50 (converted),1.78 µM
same,CC50,SNB-75 [3]; [16],> 100 µM
same,TGI,SNB-75 [3]; read-out: pTGI (converted),11.2 µM
same,GI50,MCF7 [4]; read-out: GI50,1.01 µM
same,LC50,MCF7 [4]; read-out: LC50,> 100 µM
same,TGI,MCF7 [4]; read-out: TGI,11 µM
same,GI50,MCF7 [4]; read-out: pGI50 (converted),1.02 µM
same,LC50,MCF7 [4]; read-out: pLC50 (converted),> 100 µM
same,TGI,MCF7 [4]; read-out: pTGI (converted),11 µM
same,GI50,Hs-578T [5]; read-out: GI50,4.29 µM
same,CC50,Hs-578T [5]; [15],> 100 µM
same,TGI,Hs-578T [5]; read-out: TGI,67.7 µM
same,GI50,Hs-578T [5]; read-out: pGI50 (converted),4.27 µM
same,CC50,Hs-578T [5]; [16],> 100 µM
same,TGI,Hs-578T [5]; read-out: pTGI (converted),67.6 µM
same,growth at 0.01 µM,HT-29,101%
same,growth at 0.01 µM,SNB-19,92%
same,growth at 0.01 µM,SK-MEL-2,102%
same,growth at 0.01 µM,UACC-257,91%
same,growth at 0.01 µM,IGROV-1,112%
same,growth at 0.01 µM,SK-OV-3,104%
same,growth at 0.01 µM,RXF 393,97%
same,growth at 0.01 µM,MCF7 [6],90%
same,growth at 0.1 µM,SR,92%
same,growth at 0.1 µM,NCI-H322M [7],98%
same,growth at 0.1 µM,OVCAR-3,99%
same,growth at 0.1 µM,SN12C [8],100%
same,growth at 1 µM,HL-60(TB) [9],72%
same,growth at 1 µM,NCI-H322M [10],89%
same,growth at 1 µM,HCT-116,38%
same,growth at 1 µM,SF-295,31%
same,growth at 1 µM,CAKI-1,45%
same,growth at 1 µM,SN12C [11],63%
same,growth at 1 µM,Hs-578T [12],89%
same,growth at 100 µM,NCI-H226,-29%
same,growth at 100 µM,HCT-15,-90%
same,growth at 100 µM,SF-539 [13],-78%
same,growth at 100 µM,SNB-75 [14],-38%
same,growth at 100 µM,OVCAR-4,-16%
